Series [1] has as its target WT 3Dpol (Foot-and-mouth disease virus, UniProt P03311). In words: biochemical. As to conditions: IC50 (filter binding assay).
For series [2], the target named is Klenow Fragment (KF) of E. coli DNA polymerase I (Escherichia coli, UniProt P00582). In kind it is biochemical.
For series [3], the target named is HIV-1 reverse transcriptase (HIV-1 RT) (Human immunodeficiency virus type 1 group M subtype B, UniProt P03366). In kind it is biochemical.
For series [4], the target named is T1, FMDV 3Dpol (Foot-and-mouth disease virus, UniProt P03311). In words: biochemical. As to conditions: IC50 of 3Dpol inhibition (gel-based).
Series [5] has as its system FMDV. The note with it: cited from earlier work; for EC50: read-out: EC50 (FMDV replication in cell cultures); for EC90: read-out: EC90 (FMDV replication in cell cultures).
Series [6] in a line: in vitro. The note with it: hamster.
The subject of series [7] is FMDV A24 Cruzeiro. In words: microbe, parasite or virus in culture. Format: cell-based, Foot-and-Mouth Disease Virus.
Series [8] concerns the target T1, FMDV 3Dpol. The series can be described thus: biochemical. In kind it is biochemical.
In series [9] the target is T1, FMDV 3Dpol. In words: biochemical.

Where “and” joins values, the source holds several entries; their conditions need not be identical. Equal values may be shown once. Read-outs that look alike come from different tables or passages of the source.

Chain of Klenow Fragment (KF) of E. coli DNA polymerase I (P00582 324-928): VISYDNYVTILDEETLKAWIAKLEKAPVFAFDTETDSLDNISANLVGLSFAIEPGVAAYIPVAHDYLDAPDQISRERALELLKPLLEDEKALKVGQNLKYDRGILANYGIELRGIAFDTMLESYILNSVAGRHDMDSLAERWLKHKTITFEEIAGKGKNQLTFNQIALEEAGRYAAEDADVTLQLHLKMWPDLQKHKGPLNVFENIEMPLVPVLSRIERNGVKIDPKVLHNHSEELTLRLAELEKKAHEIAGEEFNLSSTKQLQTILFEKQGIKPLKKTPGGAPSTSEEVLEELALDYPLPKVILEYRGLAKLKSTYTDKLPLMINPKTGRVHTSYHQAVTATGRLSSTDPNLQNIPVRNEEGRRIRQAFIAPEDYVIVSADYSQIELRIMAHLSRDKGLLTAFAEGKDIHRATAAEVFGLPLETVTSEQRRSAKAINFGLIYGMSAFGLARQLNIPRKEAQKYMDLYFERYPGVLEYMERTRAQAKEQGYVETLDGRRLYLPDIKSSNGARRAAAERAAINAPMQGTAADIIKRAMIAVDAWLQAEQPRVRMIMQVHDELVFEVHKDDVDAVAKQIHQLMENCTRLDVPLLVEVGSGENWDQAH
Chain of WT 3Dpol (P03311 1858-2327 limits assumed): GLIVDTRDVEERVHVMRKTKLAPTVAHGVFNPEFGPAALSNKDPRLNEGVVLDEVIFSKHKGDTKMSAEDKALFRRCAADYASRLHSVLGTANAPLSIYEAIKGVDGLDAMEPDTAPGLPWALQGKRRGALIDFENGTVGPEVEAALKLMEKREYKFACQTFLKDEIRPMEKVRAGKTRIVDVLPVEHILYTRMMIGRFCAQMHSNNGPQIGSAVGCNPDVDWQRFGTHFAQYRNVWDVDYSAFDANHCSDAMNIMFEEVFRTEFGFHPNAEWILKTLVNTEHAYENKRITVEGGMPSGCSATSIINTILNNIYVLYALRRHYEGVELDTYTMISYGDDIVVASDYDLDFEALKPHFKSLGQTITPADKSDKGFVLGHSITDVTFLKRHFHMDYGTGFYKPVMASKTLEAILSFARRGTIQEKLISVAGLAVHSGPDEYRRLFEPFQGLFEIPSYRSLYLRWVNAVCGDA
T1 sequence (P03311 1858-2327 limits assumed): as above

Usually IC50 stands for the concentration that gives 50% inhibition. A high value points to lower potency. Regarding `O=[N+]([O-])c1ccc(Sc2ccc(Cl)cc2Cl)c2nonc12` [1A8], the IC50 in series [1] is 17.4 µM and 17.8 µM; in series [4], 17.8 µM. In addition, in [2], the “inhibition of KF polymerase activity” value is reported as “No significant inhibition”. The “inhibition of HIV-1 RT polymerase activity” value in series [3] is listed as “No significant inhibition”.

For orientation: EC50 means the concentration giving half of the maximal effect. As a reminder, the EC90 is the concentration needed for an effect of 90%. With `C[C@@]1(O)[C@H](O)[C@@H](CO)O[C@H]1n1ccc(N)nc1=O` [2′-C-methylcytidine], in series [5], the EC50 is 10 µM and the EC90 was 15 µM.

On to `N#CC(C(=O)Nc1cccc(C(F)(F)F)c1)C(=S)Nc1ccccc1Cl` (centres unmarked) [3A11], for which the IC50 in series [4] was ~2 µM and 2 µM. In series [6], this molecule displayed a CC50 of 70 µM.

With `O=C(Sc1cccs1)c1cncc(C#Cc2ccccc2)c1` [4H6], in [2], the “inhibition of KF polymerase activity” value was “No significant inhibition”. Besides, the “inhibition of HIV-1 RT polymerase activity” value in series [3] is recorded as “No significant inhibition”. The molecule further showed a half-inhibitory concentration (IC50) in [4] of 8 µM. This molecule also registered a CC50 in series [6] above 100 µM.

As a reminder, the inhibition is the change of the read-out against control, counted positive when it falls. What is called Ki is the equilibrium dissociation constant of an inhibitor or competing ligand from its target. Higher therefore signals a looser hold on the target. In the case of `O=S(=O)(NNc1ncnc2sccc12)c1ccc(Cl)cc1` [5D9], the “inhibition of KF polymerase activity” value in [2] is “No significant inhibition”. In addition, in [7], the “antiviral potency relative to ribavirin” value is on record as around 80 fold and the “inhibition of viral replication” value is listed as “inhibition of viral replication”. Besides, the EC50 in series [7] (Foot-and-mouth disease virus, BHK-21, 24 h, read-out: EC50 (virus production in FMDV-infected cells)) stood at 12 µM. The EC90 in series [7] (Foot-and-mouth disease virus, BHK-21, 24 h, read-out: EC90 (virus production in FMDV-infected cells)) was 20 µM. Besides, the inhibition at 20 µM in series [7] (Foot-and-mouth disease virus, BHK-21, read-out: inhibition of virus replication) was found to be 90%. In series [3], the “inhibition of HIV-1 RT polymerase activity” value is “No significant inhibition”. Moreover, in series [4], the IC50 was determined as 12 µM. For the same molecule, the CC50 in series [6] was above 100 µM. Besides, in series [8], the Ki was 9.4 ± 2.5 µM and the “kinetic mechanism of inhibition” value is recorded as “non-competitive”.

As to `O=S1(=O)C=C(CSc2cccs2)c2cc(Cl)ccc21` [7F8], the “inhibition of KF polymerase activity” value in series [2] is “No significant inhibition”. In addition, the “inhibition of HIV-1 RT polymerase activity” value in series [3] is on record as “No significant inhibition”. The same molecule yielded an IC50 in series [4] of 10 µM. For the same molecule, the CC50 in [6] is above 100 µM. The “kinetic mechanism of inhibition” value in series [8] is listed as “non-competitive”.

`O=C1C(Cl)=C(Sc2ccccc2Br)C(=O)c2ccccc21` [8C5]: the IC50 in [1] and in series [4] was 5.4 µM in each case. Also, the “inhibition of KF polymerase activity” value in series [2] is on record as “No significant inhibition”. The “inhibition of viral replication” value in [7] was “inhibition of viral replication”. In addition, in series [3], the “inhibition of HIV-1 RT polymerase activity” value is “No significant inhibition”. This molecule registered a CC50 in [6] of 55 µM.

In the case of `CCOC(=O)/C(=N\Nc1ccc(Br)cc1)C(=O)CSC#N` [9A3], the “inhibition of KF polymerase activity” value in series [2] is “No significant inhibition”. Moreover, the “inhibition of HIV-1 RT polymerase activity” value in series [3] is listed as “No significant inhibition”. Moreover, it took 10 µM to reach half-maximal inhibition in series [4] (IC50). This molecule also gave a CC50 in [6] above 100 µM.

In the case of `Cc1cn([C@@H]2O[C@H](COP(=O)(O)OP(=O)(O)OP(=O)(O)O)C[C@H]2O)c(=O)[nH]c1=O` [DMUT, 3′-deoxy-5-methyl uridine triphosphate], the IC50 in [9] was determined as 0.68 µM.

In the case of `NC(=O)c1ncn([C@@H]2O[C@H](CO)[C@@H](O)[C@H]2O)n1` [ribavirin], in series [5], the EC50 is 970 µM and the 90% effect concentration (EC90) was 1700 µM.

The record behind these values is paper PMC3006429 (PLoS ONE, 2010).
